Patent US11513109B2, “Biological toxicity test method for evaluating the ecological safety of advanced oxidation processes” (priority 2018, dated 2022)

System: Koi (Cyprinus carpio haematopterus)
Assay: Koi exposure toxicity test: liver homogenate antioxidative enzyme activity (SOD, CAT, GPx)
Assay type: in vivo
Settings: experimental group 1 vs blank group
Method: Still further, four groups of identical experimental pools are established in S2. Each group of experimental pools is provided with 3 parallel groups. The size of each experimental pool is unified to 30 L. The water temperature of the experimental pool is 18° C. to 22° C. Each experimental pool is provided with an aerator. The first group of the experimental pools is the waste water control group, the second group is the waste water group, the third group is the tap water control group, and the fourth group is the tap water blank group. The four groups of experimental pools have same conditions except the addition of different water quality. 25 L of raw waste water, experimental waste water, control tap water, and blank tap water are sequentially added to the experimental pool of the waste water control group, the waste water experimental group, the tap water control group, and the […].
Still further, 20 selected Koi are put into each experimental pool in S3 for exposure to poison. The Koi used in the test are those domesticated with tap water and not poisoned by the contaminants. The duration of exposure is 96 h-110 h. During the period of exposure, half water is changed every day with water of same quality to maintain the water quality in a stable condition.
Further, the method in S4 is specifically: the Koi after exposure to poison in each group is dissected and liver is extracted, chopped, and formulated into a homogenate with the liver tissue and physiological saline according to weight (g): volume (mL)=1:9 and the activity of antioxidative enzymes in the homogenate is determined.
Still further, the antioxidative enzyme determined in S4 comprises superoxide dismutase, catalase, and glutathione peroxidase.
Still further, the biological indicators such as the determined enzyme activity described in S4 are determined using a kit, and 5 parallel group assays are set for each sample group.
S1: the waste water to be determined was collected (prepared), […]. […]

OO [H2O2]
produces oxidative stress: oxidative stress on the koi (SOD higher, GPx lower than blank group, not significant) (Example 1, oxidant in UV/H2O2) | oxidative stress on the Koi (SOD higher, GPx lower than blank group, not significant) (Example 3, oxidant in the ozone combined oxidation process) | oxidative stress on the Koi (SOD higher, GPx lower than blank group, not significant) (Example 4, oxidant in the wet oxidation process)
